Reference: patent publication US11192867B2, “Microbiocidal oxadiazole derivatives” (SYNGENTA PARTICIPATIONS AG, priority 2016, dated 2021)

What was measured:
[1] = test system: Puccinia recondita f. sp. Tritici; assay: Fungicidal activity against Puccinia recondita f. sp. Tritici / wheat / leaf disc preventative (brown rust); format: in vivo; details: foliar, 200 ppm in the applied formulation, wheat leaf segments cv. Kanzler, inoculated 1 day after application, vs untreated control, read-out: disease control
In short: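 Wheat leaf segments (cv. Kanzler) on water agar were sprayed with test compound (DMSO stock diluted in 0.025% Tween20/water), then spore-inoculated 1 day later. Incubation at 19° C., 75% rh, 12 h light/12 h dark; percent disease control versus untreated segments scored 7 to 9 days after application. Tested at 200 ppm.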

Phakopsora pachyrhizi = assay: Fungicidal activity against Phakopsora pachyrhizi / soybean / leaf disc preventative (Asian soybean rust); format: in vivo; details: foliar, 200 ppm in the applied formulation, soybean leaf disks, vs untreated control, read-out: disease control
In short: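 Preventative test: compound sprayed onto soybean leaf discs one day before spore inoculation of the lower leaf face. Incubation at 20 °C and 75% rh, first 24-36 h in darkness, then a 12 h light cycle. Disease control versus untreated discs read 12-14 days after application.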

[2] = test system: Puccinia recondita f. sp. Tritici; assay: Fungicidal activity against Puccinia recondita f. sp. Tritici / wheat / leaf disc curative (brown rust); format: in vivo; details: foliar, 24 h, 200 ppm in the applied formulation, wheat leaf segments cv. Kanzler, applied 1 day after inoculation, vs untreated control, read-out: disease control
In short: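 Curative leaf-segment test, cv. Kanzler: spore inoculation, dark storage 19° C/75% RH, compound spray 1 day post-inoculation. Then 12 h light/12 h dark, 19° C, 75% RH. Read-out: % disease control vs untreated check, 6–8 d after application.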

[3] = test system: Glomerella lagenarium (Colletotrichum lagenarium); assay: Fungicidal activity against Glomerella lagenarium (Colletotrichum lagenarium) liquid culture / cucumber / preventative (anthracnose); format: cell-based; details: Colletotrichum orbiculare, 72 h; 20 ppm in the applied formulation; liquid culture (PDB), growth inhibition measured photometrically 3 to 4 days after application; vs untreated control; read-out: disease control
In short: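 PDB broth seeded with cryo-stored conidia, added onto compound (DMSO solution) in 96-well plates; 24° C.; photometric growth read at 3–4 d post-application; % inhibition vs untreated check.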

Compound	melting point	pest or weed control at 200 ppm [1]	pest or weed control at 200 ppm (Phakopsora pachyrhizi)	pest or weed control at 200 ppm [2]	inhibition of growth at 20 ppm [3]
CCO/N=C\C(C)NC(=O)c1ccc(-c2noc(C(F)(F)F)n2)cc1 (stereo not shown) [Compound 1.9, N-[(2Z)-2-ethoxyimino-1-methyl-ethyl]-4-[5-(trifluoromethyl)-1,2,4-oxadiazol-3-yl]benzamide]	173 to 174 °C	≥ 80%	≥ 80%	≥ 80%	≥ 80%
CON=CCCNC(=O)c1ccc(-c2noc(C(F)(F)F)n2)c(F)c1 [Compound 1.160, 3-fluoro-N-(3-methoxyiminopropyl)-4-[5-(trifluoromethyl)-1,2,4-oxadiazol-3-yl]benzamide]	103 to 108 °C	≥ 80%	≥ 80%	≥ 80%	≥ 80%
CON=CCNC(=O)c1ccc(-c2noc(C(F)(F)F)n2)c(F)c1 [Compound 1.166, 3-fluoro-N-(2-methoxyimino-ethyl)-4-[5-(trifluoromethyl)-1,2,4-oxadiazol-3-yl]benzamide]	120 to 122 °C	≥ 80%	≥ 80%	≥ 80%	≥ 80%

Further lines, with some results ahead:

melting point	Compound	pest or weed control at 200 ppm [1]	pest or weed control at 200 ppm (Phakopsora pachyrhizi)	pest or weed control at 200 ppm [2]	inhibition of growth at 20 ppm [3]
114 to 119 °C	C#CCO/N=C\NC(=O)c1ccc(-c2noc(C(F)(F)F)n2)cc1 [Compound 1.6, N-[(Z)-prop-2-ynoxyimino-methyl]-4-[5-(trifluoromethyl)-1,2,4-oxadiazol-3-yl]benzamide]	≥ 80%	≥ 80%	≥ 80%	≥ 80%
89 to 91 °C	C#CCO/N=C/CCNC(=O)c1ccc(-c2noc(C(F)(F)F)n2)cc1 [Compound 1.167, N-[(3E)-3-prop-2-ynoxyiminopropyl]-4-[5-(trifluoromethyl)-1,2,4-oxadiazol-3-yl]benzamide]	≥ 80%	≥ 80%	≥ 80%	≥ 80%
